Experimental data taken from PubChem BioAssay AID1918944 (Molecular Pharmacology Branch, DTP, NCI, 2023).

System: 786-0 complex spheroid viability
Assay: Anticancer human tumor 786-0 cell line growth inhibition;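 also: spheroids exposed to agents for seven days before readout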
Conditions: for IC50: curve of first compound; for viability, T/C: stronger effect = lower value; active = viability on the fitted dose curve at most 10% of control; inactive = the rest
Procedure, shortened: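 Drug combinations with the LSD1 inhibitor iadademstat tested on tumor cells co-cultured as spheroids with endothelial cells and mesenchymal stem cells. Concentrations descended in half-log increments from clinical Cmax or 10 microM.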

[1] = second compound 0.1 µM, first compound 0.0316 µM
[2] = second compound 0.1 µM, first compound 0.1 µM
[3] = second compound 0.316 µM, first compound 0.0316 µM
[4] = second compound 0.316 µM, first compound 0.1 µM
[5] = second compound 1 µM, first compound 0.0316 µM
[6] = second compound 1 µM, first compound 0.1 µM
[7] = second compound 3.16 µM, first compound 0.0316 µM
[8] = second compound 3.16 µM, first compound 0.1 µM
[9] = second compound 10 µM, first compound 0.0316 µM
[10] = second compound 10 µM, first compound 0.1 µM
[11] = second compound 0.1 µM, first compound 0.00949 µM
[12] = second compound 0.1 µM, first compound 0.03 µM
[13] = second compound 0.1 µM, first compound 0.0949 µM
[14] = second compound 0.1 µM, first compound 0.3 µM
[15] = second compound 0.1 µM, first compound 0.949 µM
[16] = second compound 0.1 µM, first compound 3 µM
[17] = second compound 0.316 µM, first compound 0.00949 µM
[18] = second compound 0.316 µM, first compound 0.03 µM
[19] = second compound 0.316 µM, first compound 0.0949 µM
[20] = second compound 0.316 µM, first compound 0.3 µM
[21] = second compound 0.316 µM, first compound 0.949 µM
[22] = second compound 0.316 µM, first compound 3 µM
[23] = second compound 1 µM, first compound 0.00949 µM
[24] = second compound 1 µM, first compound 0.03 µM
[25] = second compound 1 µM, first compound 0.0949 µM
[26] = second compound 1 µM, first compound 0.3 µM
[27] = second compound 1 µM, first compound 0.949 µM
[28] = second compound 1 µM, first compound 3 µM
[29] = second compound 3.16 µM, first compound 0.00949 µM
[30] = second compound 3.16 µM, first compound 0.03 µM
[31] = second compound 3.16 µM, first compound 0.0949 µM
[32] = second compound 3.16 µM, first compound 0.3 µM
[33] = second compound 3.16 µM, first compound 0.949 µM
[34] = second compound 3.16 µM, first compound 3 µM
[35] = second compound 10 µM, first compound 0.00949 µM
[36] = second compound 10 µM, first compound 0.03 µM
[37] = second compound 10 µM, first compound 0.0949 µM
[38] = second compound 10 µM, first compound 0.3 µM
[39] = second compound 10 µM, first compound 0.949 µM
[40] = second compound 10 µM, first compound 3 µM

Cn1ncnc1C1c2n[nH]c(=O)c3cc(F)cc(c23)NC1c1ccc(F)cc1 (stereo not given) + NC1CC1c1ccc(-c2cccc(O)c2)cc1
inactive: viability, T/C (second compound 0.1 µM, first compound 0.000316 µM) 95.4% | viability, T/C (second compound 0.1 µM, first compound 0.001 µM) 94.4% | viability, T/C (second compound 0.1 µM, first compound 0.00316 µM) 95% | viability, T/C (second compound 0.1 µM, first compound 0.01 µM) 91.9% | viability, T/C [1] 92.4% | viability, T/C [2] 89.3% | viability, T/C (second compound 0.316 µM, first compound 0.000316 µM) 102% | viability, T/C (second compound 0.316 µM, first compound 0.001 µM) 102% | viability, T/C (second compound 0.316 µM, first compound 0.00316 µM) 101% | viability, T/C (second compound 0.316 µM, first compound 0.01 µM) 91% | viability, T/C [3] 94.3% | viability, T/C [4] 95.9% | viability, T/C (second compound 1 µM, first compound 0.000316 µM) 93.3% | viability, T/C (second compound 1 µM, first compound 0.001 µM) 94.5% | viability, T/C (second compound 1 µM, first compound 0.00316 µM) 90.6% | viability, T/C (second compound 1 µM, first compound 0.01 µM) 86.9% | viability, T/C [5] 81.5% | viability, T/C [6] 85% | viability, T/C (second compound 3.16 µM, first compound 0.000316 µM) 88.4% | viability, T/C (second compound 3.16 µM, first compound 0.001 µM) 92.1% | viability, T/C (second compound 3.16 µM, first compound 0.00316 µM) 90.9% | viability, T/C (second compound 3.16 µM, first compound 0.01 µM) 87.8% | viability, T/C [7] 85.2% | viability, T/C [8] 76.4% | viability, T/C (second compound 10 µM, first compound 0.000316 µM) 80.7% | viability, T/C (second compound 10 µM, first compound 0.001 µM) 87% | viability, T/C (second compound 10 µM, first compound 0.00316 µM) 84.3% | viability, T/C (second compound 10 µM, first compound 0.01 µM) 83.2% | viability, T/C [9] 79.8% | viability, T/C [10] 74.5%
> 100 nM: IC50 (second compound 0.1 µM) | IC50 (second compound 0.316 µM) | IC50 (second compound 1 µM) | IC50 (second compound 3.16 µM) | IC50 (second compound 10 µM)

COc1cc(C2c3cc4c(cc3C(OC3OC5COC(C)OC5C(O)C3O)C3COC(=O)C23)OCO4)cc(OC)c1O (stereo not given) + NC1CCC(NC2CC2c2ccccc2)CC1
115 nM: IC50 (second compound 10 µM)
203 nM: IC50 (second compound 0.1 µM)
216 nM: IC50 (second compound 0.316 µM)
199 nM: IC50 (second compound 1 µM)
active: viability, T/C [28] 8.18% | viability, T/C [40] 4.68%
inactive: viability, T/C [11] 115% | viability, T/C [12] 105% | viability, T/C [13] 61.1% | viability, T/C [14] 44.3% | viability, T/C [15] 22% | viability, T/C [16] 9.16% | viability, T/C [17] 122% | viability, T/C [18] 119% | viability, T/C [19] 65.7% | viability, T/C [20] 45.8% | viability, T/C [21] 19.4% | viability, T/C [22] 8.96% | viability, T/C [23] 118% | viability, T/C [24] 110% | viability, T/C [25] 66.4% | viability, T/C [26] 40.7% | viability, T/C [27] 18.8% | viability, T/C [29] 107% | viability, T/C [30] 104% | viability, T/C [31] 56.2% | viability, T/C [32] 34.4% | viability, T/C [33] 17.1% | viability, T/C [34] 7.91% | viability, T/C [35] 81.6% | viability, T/C [36] 79.6% | viability, T/C [37] 48.1% | viability, T/C [38] 33.2% | viability, T/C [39] 16.4%
149 nM: IC50 (second compound 3.16 µM)

CC(C)c1c(-c2ccccc2)nc2c(C#N)c[nH]n2c1=O + NC1CC1c1ccc(-c2cccc(O)c2)cc1
inactive: viability, T/C [1] 114% | viability, T/C [2] 120% | viability, T/C (second compound 0.1 µM, first compound 0.316 µM) 124% | viability, T/C (second compound 0.1 µM, first compound 1 µM) 121% | viability, T/C (second compound 0.1 µM, first compound 3.16 µM) 116% | viability, T/C (second compound 0.1 µM, first compound 10 µM) 119% | viability, T/C [3] 118% | viability, T/C [4] 117% | viability, T/C (second compound 0.316 µM, first compound 0.316 µM) 115% | viability, T/C (second compound 0.316 µM, first compound 1 µM) 121% | viability, T/C (second compound 0.316 µM, first compound 3.16 µM) 119% | viability, T/C (second compound 0.316 µM, first compound 10 µM) 115% | viability, T/C [5] 117% | viability, T/C [6] 121% | viability, T/C (second compound 1 µM, first compound 0.316 µM) 123% | viability, T/C (second compound 1 µM, first compound 1 µM) 118% | viability, T/C (second compound 1 µM, first compound 3.16 µM) 116% | viability, T/C (second compound 1 µM, first compound 10 µM) 113% | viability, T/C [7] 113% | viability, T/C [8] 113% | viability, T/C (second compound 3.16 µM, first compound 0.316 µM) 121% | viability, T/C (second compound 3.16 µM, first compound 1 µM) 121% | viability, T/C (second compound 3.16 µM, first compound 3.16 µM) 117% | viability, T/C (second compound 3.16 µM, first compound 10 µM) 116% | viability, T/C [9] 103% | viability, T/C [10] 106% | viability, T/C (second compound 10 µM, first compound 0.316 µM) 110% | viability, T/C (second compound 10 µM, first compound 1 µM) 107% | viability, T/C (second compound 10 µM, first compound 3.16 µM) 107% | viability, T/C (second compound 10 µM, first compound 10 µM) 113%
> 10000 nM: IC50 (second compound 0.1 µM) | IC50 (second compound 0.316 µM) | IC50 (second compound 1 µM) | IC50 (second compound 3.16 µM) | IC50 (second compound 10 µM)

CCN(c1cc(-c2ccc(CN3CCOCC3)cc2)cc(C(=O)NCc2c(C)cc(C)[nH]c2=O)c1C)C1CCOCC1 + NC1CCC(NC2CC2c2ccccc2)CC1
> 3000 nM: IC50 (second compound 0.1 µM) | IC50 (second compound 0.316 µM) | IC50 (second compound 1 µM) | IC50 (second compound 3.16 µM) | IC50 (second compound 10 µM)
inactive: viability, T/C [11] 121% | viability, T/C [12] 122% | viability, T/C [13] 117% | viability, T/C [14] 114% | viability, T/C [15] 114% | viability, T/C [16] 111% | viability, T/C [17] 119% | viability, T/C [18] 118% | viability, T/C [19] 114% | viability, T/C [20] 116% | viability, T/C [21] 109% | viability, T/C [22] 106% | viability, T/C [23] 116% | viability, T/C [24] 114% | viability, T/C [25] 115% | viability, T/C [26] 109% | viability, T/C [27] 105% | viability, T/C [28] 106% | viability, T/C [29] 111% | viability, T/C [30] 105% | viability, T/C [31] 109% | viability, T/C [32] 110% | viability, T/C [33] 97.2% | viability, T/C [34] 105% | viability, T/C [35] 87.2% | viability, T/C [36] 90.2% | viability, T/C [37] 91.2% | viability, T/C [38] 96.5% | viability, T/C [39] 88.3% | viability, T/C [40] 89%

Nc1ncn(C2CC(O)C(CO)S2)c(=O)n1 (stereo not given) + NC1CCC(NC2CC2c2ccccc2)CC1
198 nM: IC50 (second compound 0.1 µM)
207 nM: IC50 (second compound 0.316 µM)
inactive: viability, T/C (second compound 0.1 µM, first compound 0.000949 µM) 127% | viability, T/C (second compound 0.1 µM, first compound 0.003 µM) 127% | viability, T/C [11] 130% | viability, T/C [12] 111% | viability, T/C [13] 78.3% | viability, T/C [14] 34.1% | viability, T/C (second compound 0.316 µM, first compound 0.000949 µM) 135% | viability, T/C (second compound 0.316 µM, first compound 0.003 µM) 131% | viability, T/C [17] 130% | viability, T/C [18] 120% | viability, T/C [19] 77.1% | viability, T/C [20] 37% | viability, T/C (second compound 1 µM, first compound 0.000949 µM) 122% | viability, T/C (second compound 1 µM, first compound 0.003 µM) 123% | viability, T/C [23] 128% | viability, T/C [24] 115% | viability, T/C [25] 74.5% | viability, T/C [26] 36.9% | viability, T/C (second compound 3.16 µM, first compound 0.000949 µM) 117% | viability, T/C (second compound 3.16 µM, first compound 0.003 µM) 126% | viability, T/C [29] 126% | viability, T/C [30] 108% | viability, T/C [31] 70.2% | viability, T/C [32] 32.2% | viability, T/C (second compound 10 µM, first compound 0.000949 µM) 93.6% | viability, T/C (second compound 10 µM, first compound 0.003 µM) 91.8% | viability, T/C [35] 104% | viability, T/C [36] 98.6% | viability, T/C [37] 61.9% | viability, T/C [38] 27%
174 nM: IC50 (second compound 3.16 µM)
201 nM: IC50 (second compound 1 µM)
141 nM: IC50 (second compound 10 µM)
